Test results published in the supplement of paper PMC4862054.

Tests used:
Settings in all cases: incubation time: 72 h
BT-474 [1] = assay: normalised response (% of control), CellTox Green; higher = less cell death (100 = DMSO, 0 = benzethonium chloride kill control)
Outline: (§1)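 Plates were normalised with 0.1 % DMSO as 100 and a positive kill control as 0. Breast cancer cell lines in 20 µl suspension had been seeded into 384-well plates with compound at 5 concentrations in 10-fold steps over a compound-specific 10,000-fold range, incubated 72 h, and read for CellTox Green fluorescence (485/520 nm) followed by CellTiter-Glo luminescence. Each value is the normalised signal at a single concentration.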

BT-549 [2] = assay: as above
Outline: as §1

CAL-120 [3] = assay: as above
Outline: as §1

CAL-148 [4] = assay: as above
Outline: as §1

CAL-51 [5] = assay: as above
Outline: as §1

CAL-85-1 [6] = assay: as above
Outline: as §1

DU-4475 [7] = assay: as above
Outline: as §1

HCC1143 [8] = assay: as above
Outline: as §1

HCC1599 [9] = assay: as above
Outline: as §1

HDQ-P1 [10] = assay: as above
Outline: as §1

MCF-10A [11] = assay: as above
Outline: as §1

MDA-MB-231 [12] = assay: as above
Outline: as §1

MDA-MB-436 [13] = assay: as above
Outline: as §1

MDA-MB-453 [14] = assay: as above
Outline: as §1

MDA-MB-468 [15] = assay: as above
Outline: as §1

MFM-223 [16] = assay: as above
Outline: as §1

BT-474 [17] = assay: normalised response (% of control), CellTiter-Glo; higher = more viable cells (100 = DMSO, 0 = benzethonium chloride kill control)
Method: (§2)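 DSRT, 72 h incubation, CellTox Green / CellTiter-Glo readout. Signal is normalised to DMSO and benzethonium chloride controls. Value is the normalised response at dose 3.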

BT-549 [18] = assay: as above
Method: as §2

CAL-120 [19] = assay: as above
Method: as §2

CAL-148 [20] = assay: as above
Method: as §2

CAL-51 [21] = assay: as above
Method: as §2

CAL-85-1 [22] = assay: as above
Method: as §2

DU-4475 [23] = assay: as above
Method: as §2

HCC1143 [24] = assay: as above
Method: as §2

HCC1599 [25] = assay: as above
Method: as §2

HCC1937 [26] = assay: as above
Method: as §2

HDQ-P1 [27] = assay: as above
Method: as §2

Hs578T [28] = assay: as above
Method: as §2

MCF-10A [29] = assay: as above
Method: as §2

MDA-MB-231 [30] = assay: as above
Method: as §2

MDA-MB-436 [31] = assay: as above
Method: as §2

MDA-MB-453 [32] = assay: as above
Method: as §2

MDA-MB-468 [33] = assay: as above
Method: as §2

MFM-223 [34] = assay: as above
Method: as §2

SK-BR-3 [35] = assay: as above
Method: as §2

HCC1937 [36] = assay: normalised response (% of control), CellTox Green; higher = less cell death (100 = DMSO, 0 = benzethonium chloride kill control)
Outline: as §1

Hs578T [37] = assay: as above
Outline: as §1

BT-474 [38] = assay: normalised response (% of control), CellTiter-Glo; higher = more viable cells (100 = DMSO, 0 = benzethonium chloride kill control); remark: listed apart in the source
Outline: as §1

BT-549 [39] = assay: as above; remark: listed apart in the source
Outline: as §1

CAL-120 [40] = assay: as above; remark: listed apart in the source
Outline: as §1

CAL-148 [41] = assay: as above; remark: listed apart in the source
Outline: as §1

CAL-51 [42] = assay: as above; remark: listed apart in the source
Outline: as §1

CAL-85-1 [43] = assay: as above; remark: listed apart in the source
Outline: as §1

DU-4475 [44] = assay: as above; remark: listed apart in the source
Outline: as §1

HCC1143 [45] = assay: as above; remark: listed apart in the source
Outline: as §1

HCC1599 [46] = assay: as above; remark: listed apart in the source
Outline: as §1

HCC1937 [47] = assay: as above; remark: listed apart in the source
Outline: as §1

HDQ-P1 [48] = assay: as above; remark: listed apart in the source
Outline: as §1

Hs578T [49] = assay: as above; remark: listed apart in the source
Outline: as §1

MCF-10A [50] = assay: as above; remark: listed apart in the source
Outline: as §1

MDA-MB-231 [51] = assay: as above; remark: listed apart in the source
Outline: as §1

MDA-MB-436 [52] = assay: as above; remark: listed apart in the source
Outline: as §1

MDA-MB-453 [53] = assay: as above; remark: listed apart in the source
Outline: as §1

MDA-MB-468 [54] = assay: as above; remark: listed apart in the source
Outline: as §1

MFM-223 [55] = assay: as above; remark: listed apart in the source
Outline: as §1

SK-BR-3 [56] = assay: as above; remark: listed apart in the source
Outline: as §1

Compound: CO[C@H]1C[C@@H]2CC[C@@H](C)[C@@](O)(O2)C(=O)C(=O)N2CCCC[C@H]2C(=O)O[C@H]([C@H](C)C[C@@H]2CC[C@@H](O)[C@H](OC)C2)CC(=O)[C@H](C)/C=C(\C)[C@@H](O)[C@@H](OC)C(=O)[C@H](C)C[C@H](C)/C=C/C=C/C=C/1C [Sirolimus] (1 nM)
- normalised response (BT-474 [1]): 102%
- normalised response (BT-549 [2]): 78.5%
- normalised response (CAL-120 [3]): 97.4%
- normalised response (CAL-148 [4]): 103%
- normalised response (CAL-51 [5]): 107%
- normalised response (CAL-85-1 [6]): 105%
- normalised response (DU-4475 [7]): 105%
- normalised response (HCC1143 [8]): 78.7%
- normalised response (HCC1599 [9]): 94.8%
- normalised response (HDQ-P1 [10]): 97.1%
- normalised response (MCF-10A [11]): 91.9%
- normalised response (MDA-MB-231 [12]): 109%
- normalised response (MDA-MB-436 [13]): 79.2%
- normalised response (MDA-MB-453 [14]): 109%
- normalised response (MDA-MB-468 [15]): 119%
- normalised response (MFM-223 [16]): 92.6%
- normalised response (BT-474 [17]): 90.5%
- normalised response (BT-549 [18]): 83.5%
- normalised response (CAL-120 [19]): 98%
- normalised response (CAL-148 [20]): 94.2%
- normalised response (CAL-51 [21]): 90.1%
- normalised response (CAL-85-1 [22]): 78.4%
- normalised response (DU-4475 [23]): 98.7%
- normalised response (HCC1143 [24]): 92.5%
- normalised response (HCC1599 [25]): 103%
- normalised response (HCC1937 [26]): 85.6%
- normalised response (HDQ-P1 [27]): 102%
- normalised response (Hs578T [28]): 88.2%
- normalised response (MCF-10A [29]): 112%
- normalised response (MDA-MB-231 [30]): 101%
- normalised response (MDA-MB-436 [31]): 92.4%
- normalised response (MDA-MB-453 [32]): 93.7%
- normalised response (MDA-MB-468 [33]): 71.1%
- normalised response (MFM-223 [34]): 96.5%
- normalised response (SK-BR-3 [35]): 95.4%

Compound: CO[C@H]1C[C@@H]2CC[C@@H](C)[C@@](O)(O2)C(=O)C(=O)N2CCCC[C@H]2C(=O)O[C@H]([C@H](C)C[C@@H]2CC[C@@H](O)[C@H](OC)C2)CC(=O)[C@H](C)/C=C(\C)[C@@H](O)[C@@H](OC)C(=O)[C@H](C)C[C@H](C)/C=C/C=C/C=C/1C [Sirolimus] (10 nM)
- normalised response (BT-474 [1]): 94.8%
- normalised response (BT-549 [2]): 87.2%
- normalised response (CAL-120 [3]): 105%
- normalised response (CAL-148 [4]): 52.9%
- normalised response (CAL-51 [5]): 104%
- normalised response (CAL-85-1 [6]): 108%
- normalised response (DU-4475 [7]): 102%
- normalised response (HCC1143 [8]): 115%
- normalised response (HCC1599 [9]): 90.7%
- normalised response (HCC1937 [36]): 97.7%
- normalised response (HDQ-P1 [10]): 109%
- normalised response (Hs578T [37]): 59.7%
- normalised response (MCF-10A [11]): 104%
- normalised response (MDA-MB-231 [12]): 116%
- normalised response (MDA-MB-436 [13]): 69.6%
- normalised response (MDA-MB-453 [14]): 107%
- normalised response (MDA-MB-468 [15]): 157%
- normalised response (MFM-223 [16]): 91.1%
- normalised response (BT-474 [38]): 83.5%
- normalised response (BT-549 [39]): 58.3%
- normalised response (CAL-120 [40]): 67.3%
- normalised response (CAL-148 [41]): 67.1%
- normalised response (CAL-51 [42]): 65.5%
- normalised response (CAL-85-1 [43]): 63%
- normalised response (DU-4475 [44]): 88.5%
- normalised response (HCC1143 [45]): 69.1%
- normalised response (HCC1599 [46]): 98.8%
- normalised response (HCC1937 [47]): 81.5%
- normalised response (HDQ-P1 [48]): 82.8%
- normalised response (Hs578T [49]): 67.5%
- normalised response (MCF-10A [50]): 102%
- normalised response (MDA-MB-231 [51]): 93.9%
- normalised response (MDA-MB-436 [52]): 79.1%
- normalised response (MDA-MB-453 [53]): 66.2%
- normalised response (MDA-MB-468 [54]): 51.8%
- normalised response (MFM-223 [55]): 70.9%
- normalised response (SK-BR-3 [56]): 66.4%
